In ChEMBL document CHEMBL2074405, “Transport of monoamine transmitters by the organic cation transporter type 2, OCT2” (J Biol Chem, 1998):
“And” between values parts separate entries of the source, which are not always exact repeats. Identical values can stand only once.

Assays:
[1] = target: T1, Solute carrier family 22 member 2 (Rattus norvegicus, UniProt Q9R0W2); experiment: TP_TRANSPORTER: inhibition of Dopamine uptake (Dopamine: 0.1 uM, Cocaine: 1 uM) in OCT2-expressing HEK293 cells; type: functional, cell-based; conditions: human, hek293, 1 µM
T1 sequence (Q9R0W2 whole entry): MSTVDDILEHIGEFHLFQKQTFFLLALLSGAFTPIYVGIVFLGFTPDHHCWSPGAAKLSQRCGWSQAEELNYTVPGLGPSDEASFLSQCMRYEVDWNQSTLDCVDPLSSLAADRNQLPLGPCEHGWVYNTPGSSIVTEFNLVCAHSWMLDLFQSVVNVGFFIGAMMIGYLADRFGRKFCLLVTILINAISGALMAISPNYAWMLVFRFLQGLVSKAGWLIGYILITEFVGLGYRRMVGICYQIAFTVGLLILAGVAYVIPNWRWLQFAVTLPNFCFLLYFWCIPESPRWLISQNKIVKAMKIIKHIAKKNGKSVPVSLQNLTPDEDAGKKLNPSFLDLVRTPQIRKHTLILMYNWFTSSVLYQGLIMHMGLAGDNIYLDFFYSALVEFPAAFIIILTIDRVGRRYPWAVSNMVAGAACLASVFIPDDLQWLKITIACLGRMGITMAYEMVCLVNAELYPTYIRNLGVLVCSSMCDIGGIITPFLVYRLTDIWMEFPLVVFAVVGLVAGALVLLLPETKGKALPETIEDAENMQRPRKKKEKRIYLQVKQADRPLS

[2] = target: T1, Solute carrier family 22 member 2; experiment: TP_TRANSPORTER: inhibition of Serotonin uptake in OCT2-expressing HEK293 cells; type: functional, cell-based
[3] = target: T1, Solute carrier family 22 member 2; experiment: TP_TRANSPORTER: inhibition of Noradrenaline uptake in OCT2-expressing HEK293 cells; type: functional, cell-based
[4] = target: T1, Solute carrier family 22 member 2; experiment: TP_TRANSPORTER: inhibition of Dopamine uptake in OCT2-expressing HEK293 cells; type: functional, cell-based
[5] = target: T1, Solute carrier family 22 member 2; experiment: TP_TRANSPORTER: inhibition of Adrenaline uptake in OCT2-expressing HEK293 cells; type: functional, cell-based
[6] = target: T1, Solute carrier family 22 member 2; experiment: TP_TRANSPORTER: inhibition of Dopamine uptake (Dopamine: 0.1 uM, O-Methylisoprenaline: 30 uM) in OCT2-expressing HEK293 cells; type: functional, cell-based; conditions: human, hek293, 30 µM
[7] = substrate: CNC[C@H](O)c1ccc(O)c(O)c1; experiment: cells, lysate or membranes named
[8] = substrate: NCCc1c[nH]c2ccc(O)cc12; experiment: cells, lysate or membranes named
Description: (§1) TP_TRANSPORTER: uptake in OCT2-expressing HEK293 cells

[9] = substrate: NCCc1ccc(O)c(O)c1; experiment: cells, lysate or membranes named
[10] = substrate: NC[C@H](O)c1ccc(O)c(O)c1; experiment: cells, lysate or membranes named
Description: as §1

**Q.** Which Activity [1] does the source give for `COC(=O)[C@H]1[C@@H](OC(=O)c2ccccc2)C[C@@H]2CC[C@H]1N2C` [COCAINE] here?
**A.** Its Activity is “is not an inhibitor [-]”.

**Q.** For `CC(C)N1/C(=C\c2cc[n+](C(C)C)c3ccccc23)C=Cc2ccccc21` [DISPROCYNIUM24], which Ki [2] is on record?
**A.** Its Ki is 13 nM.

**Q.** And the Ki [3]?
**A.** Its Ki is 13 nM.

**Q.** What about the Ki [4] of the same molecule?
**A.** The Ki was 5.1 nM.

**Q.** And the Ki [5]?
**A.** The Ki was 12 nM.

**Q.** `COc1cc(C(O)CNC(C)C)ccc1O` (centres undefined) [METIPRENALINE] was tested. Which Activity [6] did it give?
**A.** The Activity was “is not an inhibitor [-]”.

**Q.** What does the source list for `C[C@]12C[C@H](O)[C@H]3[C@@H](CCC4=CC(=O)CC[C@@]43C)[C@@H]1CC[C@@H]2C(=O)CO` [CORTICOSTERONE]?
**A.** Ki [2]: 605 nM; Ki [3]: 460 nM; Ki [4]: 390 nM; Ki [5]: 420 nM

B1: Solute carrier family 22 member 2 (Rattus norvegicus) (protein)
chain: MSTVDDILEHIGEFHLFQKQTFFLLALLSGAFTPIYVGIVFLGFTPDHHCWSPGAAKLSQRCGWSQAEELNYTVPGLGPSDEASFLSQCMRYEVDWNQSTLDCVDPLSSLAADRNQLPLGPCEHGWVYNTPGSSIVTEFNLVCAHSWMLDLFQSVVNVGFFIGAMMIGYLADRFGRKFCLLVTILINAISGALMAISPNYAWMLVFRFLQGLVSKAGWLIGYILITEFVGLGYRRMVGICYQIAFTVGLLILAGVAYVIPNWRWLQFAVTLPNFCFLLYFWCIPESPRWLISQNKIVKAMKIIKHIAKKNGKSVPVSLQNLTPDEDAGKKLNPSFLDLVRTPQIRKHTLILMYNWFTSSVLYQGLIMHMGLAGDNIYLDFFYSALVEFPAAFIIILTIDRVGRRYPWAVSNMVAGAACLASVFIPDDLQWLKITIACLGRMGITMAYEMVCLVNAELYPTYIRNLGVLVCSSMCDIGGIITPFLVYRLTDIWMEFPLVVFAVVGLVAGALVLLLPETKGKALPETIEDAENMQRPRKKKEKRIYLQVKQADRPLS
**Q.** B1 was tested. Which Km [7] did it give?
**A.** The Km was 1.9 mM.

**Q.** And the Km [8]?
**A.** The Km was 3.6 mM.

**Q.** What about the Km [9] of the same molecule?
**A.** Its Km is 2.1 mM.

**Q.** What about the Km [10] of the same molecule?
**A.** Its Km is 11 mM and 4.4 mM.
